Assay results: ChEMBL document CHEMBL1147821, “P3 and P4 position analysis of vinyl ester pseudopeptide proteasome inhibitors” (Bioorg Med Chem Lett, 2006)

Molecular target: T1, Proteasome Macropain subunit MB1 (Homo sapiens, UniProt P28074)
T1 sequence (P28074 whole entry): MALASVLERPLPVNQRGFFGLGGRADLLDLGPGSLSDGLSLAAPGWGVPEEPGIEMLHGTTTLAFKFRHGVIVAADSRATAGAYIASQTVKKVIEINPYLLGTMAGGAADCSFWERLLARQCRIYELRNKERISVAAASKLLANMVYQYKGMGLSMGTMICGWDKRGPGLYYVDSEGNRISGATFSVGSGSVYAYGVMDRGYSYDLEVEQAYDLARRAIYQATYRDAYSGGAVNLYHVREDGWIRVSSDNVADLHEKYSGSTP
Description: Inhibition of chymotrypsin like activity of proteasome

Structure (SMILES) | IC50
CCOC(=O)/C=C/[C@H](CC(C)C)NC(=O)[C@H](CCC(N)=O)NC(=O)[C@@H](NC(=O)[C@@H](N)Cc1ccccc1)C(C)C | 4.15 µM
CCOC(=O)/C=C/[C@H](CC(C)C)NC(=O)[C@H](CCC(N)=O)NC(=O)[C@H](Cc1ccccc1)NC(=O)c1cccc(O)c1C | 2.23 µM
CCOC(=O)/C=C/[C@H](CC(C)C)NC(=O)[C@H](CCC(N)=O)NC(=O)[C@@H](NC(=O)[C@@H](N)Cc1ccc(O)cc1)C(C)C | 4.32 µM
CCOC(=O)/C=C/[C@H](CC(C)C)NC(=O)[C@H](CCC(N)=O)NC(=O)[C@@H](NC(=O)c1cccc(O)c1C)C(C)C | 6.67 µM
CC(C)C[C@@H](/C=C/S(C)(=O)=O)NC(=O)[C@H](CC(C)C)NC(=O)[C@H](CC(C)C)NC(=O)OCc1ccccc1 | 0.061 µM
